Results as given in patent publication US20260285850A1, “SUBSTITUTED OXAZOLIDINONES AND IMIDAZOLINONES AS HERBICIDES” (FMC CORPORATION, priority 2023, published 2026).

Legend:
Type in all cases: in vivo
[1] = test system: ducksalad (Heteranthera limosa); assay: Test B flooded paddy test, visual plant response rating 0-100; conditions: 250 g ai/ha, Flood, applied to paddy water, evaluated after 13 days
In short: (§1)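 Plants were grown to the 2-leaf stage, then pots were flooded to 3 cm above the soil and test compounds were applied directly into the paddy water. Water depth was held there throughout; after 13 days in a greenhouse, injury was scored visually against untreated controls.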

[2] = test system: sedge, umbrella (small-flower umbrella sedge, Cyperus difformis); assay: as above; conditions: 250 g ai/ha, Flood, applied to paddy water, evaluated after 13 days
In short: as §1

rice (Oryza sativa) = assay: as above; conditions: 250 g ai/ha, Flood, applied to paddy water, evaluated after 13 days
In short: as §1

[3] = test system: barnyardgrass (Echinochloa crusgalli); assay: as above; conditions: 250 g ai/ha, Flood, applied to paddy water, evaluated after 13 days
In short: as §1

soybean (Glycine max) [4] = assay: Test A preemergence soil spray, visual injury rating 0-100; conditions: 10 days
In short: (§2)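 Scale 0–100 (no effect to complete control), visual, versus untreated controls, read 10 days after application. Application: preemergence directed spray onto seeded loam–sand soil, or postemergence to young plants; formulation in non-phytotoxic solvent with surfactant.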

corn (Zea mays) [5] = assay: as above; conditions: 10 days
In short: as §2

[6] = test system: green foxtail (Setaria viridis); assay: as above; conditions: 10 days
In short: as §2

[7] = test system: palmer (palmer amaranth, palmer pigweed, Amaranthus palmeri); assay: as above; conditions: 10 days
In short: as §2

[8] = test system: blackgrass (Alopecurus myosuroides); assay: as above; conditions: 10 days
In short: as §2

[9] = test system: ryegrass, Italian (italian ryegrass, Lolium multiflorum); assay: as above; conditions: 10 days
In short: as §2

[10] = test system: barnyardgrass (Echinochloa crus-galli); assay: as above; conditions: 10 days
In short: as §2

[11] = test system: wheat (Triticum aestivum); assay: as above; conditions: 10 days
In short: as §2

[12] = test system: oat, wild (wild oat, Avena fatua); assay: as above; conditions: 10 days
In short: as §2

[13] = test system: ragweed (common ragweed, Ambrosia artemisiifolia); assay: as above; conditions: 10 days
In short: as §2

kochia (Bassia scoparia) [14] = assay: as above; conditions: 10 days
In short: as §2

soybean (Glycine max) [15] = assay: Test A postemergence application, visual injury rating 0-100
In short: as §2

corn (Zea mays) [16] = assay: as above
In short: as §2

[17] = test system: horseweed (Erigeron canadensis); assay: as above
In short: as §2

[18] = test system: green foxtail (Setaria viridis); assay: as above
In short: as §2

[19] = test system: palmer (palmer amaranth, palmer pigweed, Amaranthus palmeri); assay: as above
In short: as §2

[20] = test system: blackgrass (Alopecurus myosuroides); assay: as above
In short: as §2

[21] = test system: ryegrass, Italian (italian ryegrass, Lolium multiflorum); assay: as above
In short: as §2

[22] = test system: barnyardgrass (Echinochloa crus-galli); assay: as above
In short: as §2

[23] = test system: wheat (Triticum aestivum); assay: as above
In short: as §2

[24] = test system: oat, wild (wild oat, Avena fatua); assay: as above
In short: as §2

[25] = test system: ragweed (common ragweed, Ambrosia artemisiifolia); assay: as above
In short: as §2

kochia (Bassia scoparia) [26] = assay: as above
In short: as §2

[27] = 62 g ai/ha, 0 = no effect, 100 = complete control
[28] = 62 g ai/ha, postemergence, 10 days, 0 = no effect, 100 = complete control
[29] = Postemergence, 16 g ai/ha, greenhouse 10 days, 0 no effect, 100 complete control

## COC(=O)COC(=O)C1=CCC(NC(=O)C2(C)CN(c3cc(F)cc(F)c3)C(=O)O2)C1 (centres unmarked) [Compound 107]
[1]
  Plant response rating, Ducksalad (0 to 100 scale, 0 is no effect and 100 is complete control): 0
[2]
  Plant response rating, Sedge, Umbrella (0 to 100 scale, 0 is no effect and 100 is complete control): 0
Rice (Oryza sativa)
  Plant response rating, Rice (0 to 100 scale, 0 is no effect and 100 is complete control): 0
[3]
  Plant response rating, Barnyardgrass (0 to 100 scale, 0 is no effect and 100 is complete control): 0
Soybean (Glycine max) [4]; 16 g ai/ha, 0 to 100 scale
  Soybean plant response rating: 0
Soybean (Glycine max) [4]; [27]
  Soybean plant response rating (0-100): 0
Corn (Zea mays) [5]; 16 g ai/ha, 0 to 100 scale
  Corn plant response rating: 0
Corn (Zea mays) [5]; [27]
  Corn plant response rating (0-100): 0
[6]; 16 g ai/ha, 0 to 100 scale
  Foxtail, Green plant response rating: 0
[6]; [27]
  Foxtail, Green plant response rating (0-100): 0
[7]; 16 g ai/ha, 0 to 100 scale
  Pigweed, Palmer plant response rating: 0
[7]; [27]
  Pigweed, Palmer plant response rating (0-100): 0
[8]; 16 g ai/ha, 0 to 100 scale
  Blackgrass plant response rating: 0
[8]; [27]
  Blackgrass plant response rating (0-100): 0
[9]; 16 g ai/ha, 0 to 100 scale
  Ryegrass, Italian plant response rating: 10
[9]; [27]
  Ryegrass, Italian plant response rating (0-100): 40
[10]; 16 g ai/ha, 0 to 100 scale
  Barnyardgrass plant response rating: 0
[10]; [27]
  Barnyardgrass plant response rating (0-100): 10
[11]; 16 g ai/ha, 0 to 100 scale
  Wheat plant response rating: 0
[11]; [27]
  Wheat plant response rating (0-100): 10
[12]; 16 g ai/ha, 0 to 100 scale
  Oat, Wild plant response rating: 0
[12]; [27]
  Oat, Wild plant response rating (0-100): 0
[13]; 16 g ai/ha, 0 to 100 scale
  Ragweed plant response rating: 0
[13]; [27]
  Ragweed plant response rating (0-100): 0
Kochia (Bassia scoparia) [14]; 16 g ai/ha, 0 to 100 scale
  Kochia plant response rating: 0
Kochia (Bassia scoparia) [14]; [27]
  Kochia plant response rating (0-100): 0
Soybean (Glycine max) [15]; [28]
  Soybean plant response rating (0-100): 40
Soybean (Glycine max) [15]; [29]
  Soybean plant response rating (0 to 100 scale): 0
Corn (Zea mays) [16]; [28]
  Corn plant response rating (0-100): 100
Corn (Zea mays) [16]; [29]
  Corn plant response rating (0 to 100 scale): 0
[17]; [28]
  Horseweed plant response rating (0-100): 30
[17]; [29]
  Horseweed plant response rating (0 to 100 scale): 0
[18]; [28]
  Foxtail, Green plant response rating (0-100): 20
[18]; [29]
  Foxtail, Green plant response rating (0 to 100 scale): 0
[19]; [28]
  Pigweed, Palmer plant response rating (0-100): 30
[19]; [29]
  Pigweed, Palmer plant response rating (0 to 100 scale): 0
[20]; [28]
  Blackgrass plant response rating (0-100): 60
[20]; [29]
  Blackgrass plant response rating (0 to 100 scale): 0
[21]; [28]
  Ryegrass, Italian plant response rating (0-100): 60
[21]; [29]
  Ryegrass, Italian plant response rating (0 to 100 scale): 0
[22]; [28]
  Barnyardgrass plant response rating (0-100): 80
[22]; [29]
  Barnyardgrass plant response rating (0 to 100 scale): 0
[23]; [28]
  Wheat plant response rating (0-100): 50
[23]; [29]
  Wheat plant response rating (0 to 100 scale): 0
[24]; [28]
  Oat, Wild plant response rating (0-100): 20
[24]; [29]
  Oat, Wild plant response rating (0 to 100 scale): 0
[25]; [28]
  Ragweed plant response rating (0-100): 20
[25]; [29]
  Ragweed plant response rating (0 to 100 scale): 0
Kochia (Bassia scoparia) [26]; [28]
  Kochia plant response rating (0-100): 10
Kochia (Bassia scoparia) [26]; [29]
  Kochia plant response rating (0 to 100 scale): 0
